Test results: US9751861B2, “N1-(3,3,3-trifluoro-2-hydroxo-2-methylpropionyl)-piperidine derivatives as inhibitors of pyruvate dehydrogenase kinase” (MERCK PATENT GMBH, priority 2013, dated 2017)
pIC50, pKd: −log10 of the molar value.

Experiments:
PDHK2 = target: T1, PDHK2 (Homo sapiens, UniProt Q15119); assay: Biochemical activity testing of PDHK2: PDC inactivation assay; settings: human rec PDHK2, PDC from porcine heart, ATP 5 μM; read-out: IC50 PDHK2 (enzyme assay)
T1 construct: purchased Carna Bioscience
Excerpt: Biochemical Activity Testing of PDHK2: PDC Inactivation Assay
The biochemical activity assay for PDHK2 is based on the inactivation of PDC through phosphorylation by PDHK2. The assay is run in two steps: the enzymatic PDHK2 reaction in which isolated PDC is phosphorylated by PDHK2 with ATP as co-substrate and the PDC activity assay in which pyruvate and NAD are converted to acetyl-CoA and NADH. The PDC activity correlates to the increase in NADH and thereby is detectable directly via the increasing fluorescence signal (Exc 340 nm, Em 450 nm). Inhibition of PDHK2 results in a lower phosphorylation status and thereby a less decrease in activity of PDC and a stronger increase in NADH fluorescence signal.
The PDC inactivation assay is performed in Greiner 384-well microtiter plates and is used for high throughput screen. 4 μl of PDHK2 (human, rec, Carna Bioscience, 10 ng/μl-137 nM final concentration) and PDC (isolated from porcine heart, Sigma-Aldrich, 20 mU/ml final concentration) are incubated in the absence or presence of the test compound (10 dilution concentrations) for 30 min at room temperature in kinase buffer (15 mM potassium phosphate buffer, pH 7.0, 60 mM KCl, 1.5 mM DTT, 2.5 mM MgCl2, 0.0125% (w/v) BSA, 0.125% Pluronic F-68). The kinase reaction is started by the addition of 4 μl ATP substrate solution (fc 5 μM in kinase buffer). After 30 min incubation at 37° C. 40 μl of PDC reaction solution (100 mM Tris/HCl, pH 7.8, 0.5 mM EDTA, 1 mM MgCl2, 50 mM NaF, 0.25 mM Coenzyme A, 5 mM pyruvate, 1 mM NAD, 5 mM DTT, […] thiamine pyrophosphate) is added. The first fluorescence measurement is performed on a Perkin Elmer Envision (Exc 340 nm, Em 450 nm). The reaction is incubated for 45 min at room temperature. Afterwards a second fluorescence measurement is performed and the PDC activity is calculated by the difference between both measurements. As full value for the PDHK2 assay the inhibitor-free PDHK2 reaction is used. The pharmacological zero value used is DCA (Sigma-Aldrich) in a final concentration of 3 mM. The inhibitory values (IC50) were determined using either the program Symyx Assay Explorer® or Condosseo® from GeneData.

human PDHK2 (12-407) = target: T2, human PDHK2 (12-407) (Homo sapiens, UniProt Q15119); assay: Isothermal titration calorimetry (ITC) binding; settings: 30° C., pH 7.5
T2 construct: The human PDHK2 (12-407) was produced in E. coli; His-tag (cleaved yes); made in house; host or cells: E. coli
Protocol: Isothermal Titration Calorimetry
ITC measurements were performed with a VP-ITC micro calorimeter (Microcal, LLC/GE Healthcare Bio-Sciences AB, Uppsala, Sweden). In general titrations were performed by titrating the protein (50 μM) to the test compound (5 μM) in 12 μl injections. All binding experiments were carried out at 30° C. In general the test compounds were diluted form DMSO stock solutions into the measurement buffer with a maximum final concentration of 1% DMSO. The measurement buffer was 20 mM HEPES, 135 mM KCl, 1 mM TCEP, 2 mM MgCl2, 15 mM NaH2PO4, pH 7.5. The human PDHK2 (12-407) was produced in E. coli as his-tagged protein and purified by affinity chromatography. The tag was removed by side specific proteolysis. Before titration the protein buffer was changed to the measurement buffer containing the same DMSO concentration as the test compound dilution. ITC data analysis was performed using Origin 7 calorimetry software from the same supplier. For most measurements a binding model of one binding site was assumed. According to the applied mathematical model it is possible to calculate the binding constant (KA), the observed binding enthalpy (ΔH^obs) as well as the stoichiometry (N) of the formed complex. Preceding analysis the raw data was corrected for the heats of dilution by extrapolating from the saturation value from the end of titration. In order to allow for direct comparison between the respective experimental series and protein preparations the protein concentration was corrected by referencing titrations to a well behaved standard inhibitor. The apparent stoichiometry values defined the fraction of binding competent protein and compensated for relative errors in protein concentration measurements. This corrected protein concentration was used to set up ITC experiment series with test compounds. Any deviations from ideal 1:1 stoichiometry observed here were attributed to errors in compound concentration. This nominal compound concentration was corrected as well to achieve 1:1 stoichiometry in the fit.

PDH-Elalpha (pSer300) = assay: Cellular immunofluorescence assay in HEK293T cells; assay type: cell-based; settings: Homo sapiens, HEK-293T, 5 hours incubation, anti-PDH-E1alpha pSer300 immunofluorescence, read-out: IC50 (cell data)
Protocol: Cellular Assay for Determination of Compound Activities
Compound activities were determined in a cellular immunofluorescence assay. Human HEK293T cells were seeded into black 384-well plates with clear bottom and grown overnight.
Next day, test compounds were added to the wells and the plates incubated for 5 hours. Following this, cells were fixed with formaldehyde, permeabilised and blocked. The primary antibody, Anti-PDH-Elalpha (pSer300), AP1064 (Merck Millipore) was added and incubated overnight in the plate wells. Next, cells were washed and the seconday antibody, Alexa Fluor 488, goat anti-rabbit ab (A-11008, Invitrogen) was added together with Hoechst 33258 (H3569, Invitrogen) and incubated for 1 hour in the plate wells. Finally, cells were washed and the plates were measured on the laser scanning cytometer acumen hci (TTpLabtech).
The raw data were normalized against a pharmacological inhibitor control and dose response curves were generated by plotting the percent effect values using the software package Genedata screener (Genedata).

SMILES	pIC50 (PDHK2)	pKd (human PDHK2 (12-407))	pIC50 (PDH-Elalpha (pSer300))
COc1ccccc1-n1nccc1C1CCN(C(=O)[C@@](C)(O)C(F)(F)F)CC1 [Compound A7, (R)-3,3,3-Trifluoro-2-hydroxy-1-{4-[2-(2-methoxy-phenyl)-2H-pyrazol-3-yl]-piperidin-1-yl}-2-methyl-propan-1-one]	–	5.52 to 6.52	> 6.52
Cn1nccc1C1CCN(C(=O)[C@@](C)(O)C(F)(F)F)CC1 [Compound A52, (R)-3,3,3-Trifluoro-2-hydroxy-2-methyl-1-[4-(2-methyl-2H-pyrazol-3-yl)piperidin-1-yl]-propan-1-one]	5.52 to 6.52	5.52 to 6.52	–
C[C@@](O)(C(=O)N1CCC(n2cnnc2-c2ccc(Cl)cc2)CC1)C(F)(F)F [Compound A56, (R)-1-{4-[3-(4-Chloro-phenyl)-[1,2,4]triazol-4-yl]-piperidin-1-yl}-3,3,3-trifluoro-2-hydroxy-2-methyl-propan-1-one]	5.52 to 6.52	5.52 to 6.52	–
C[C@@](O)(C(=O)N1CCC(c2ccnn2C2CC2)CC1)C(F)(F)F [Compound A74, (R)-1-[4-(2-Cyclopropyl-2H-pyrazol-3-yl)-1-piperidyl]-3,3,3-trifluoro-2-hydroxy-2-methyl-propan-1-one]	5.52 to 6.52	> 6.52	–
C[C@@](O)(C(=O)N1CCC(c2ccn(-c3ccc(Cl)cn3)n2)CC1)C(F)(F)F [Compound A29, (R)-1-{4-[1-(5-Chloro-pyridin-2-yl)-1H-pyrazol-3-yl]-piperidin-1-yl}-3,3,3-trifluoro-2-hydroxy-2-methyl-propan-1-one]	5.52 to 6.52	5.52 to 6.52	–
C[C@@](O)(C(=O)N1CCC(c2cnnn2-c2ccc(Cl)cc2)CC1)C(F)(F)F [Compound A58, (R)-1-{4-[3-(4-Chloro-phenyl)-3H-[1,2,3]triazol-4-yl]-piperidin-1-yl}-3,3,3-trifluoro-2-hydroxy-2-methyl-propan-1-one]	5.52 to 6.52	5.52 to 6.52	–
COc1ccc(-n2ccnc2C2CCN(C(=O)[C@@](C)(O)C(F)(F)F)CC2)cc1 [Compound A70, (R)-3,3,3-Trifluoro-2-hydroxy-1-{4-[1-(4-methoxy-phenyl)-1H-imidazol-2-yl]-piperidin-1-yl}-2-methyl-propan-1-one]	5.52 to 6.52	5.52 to 6.52	–
Cc1ccc(-n2ccnc2C2CCN(C(=O)[C@@](C)(O)C(F)(F)F)CC2)cc1 [Compound A68, (R)-3,3,3-Trifluoro-2-hydroxy-2-methyl-1-[4-(1-p-tolyl-1H-imidazol-2-yl)piperidin-1-yl]-propan-1-one]	5.52 to 6.52	5.52 to 6.52	–
C[C@@](O)(C(=O)N1CCC(c2ccnn2-c2ccccc2C#N)CC1)C(F)(F)F [Compound A3, 2-{5-[1-((R)-3,3,3-Trifluoro-2-hydroxy-2-methyl-propionyl)-piperidin-4-yl]-pyrazol-1-yl}-benzonitrile]	–	5.52 to 6.52	5.52 to 6.52
Cc1ccc(-n2nncc2C2CCN(C(=O)[C@@](C)(O)C(F)(F)F)CC2)c(F)c1 [Compound A60]	5.52 to 6.52	5.52 to 6.52	–
C[C@@](O)(C(=O)N1CCC(c2ccnn2-c2ccon2)CC1)C(F)(F)F [Compound A122, (R)-3,3,3-Trifluoro-2-hydroxy-1-[4-(2-isoxazol-3-yl-2H-pyrazol-3-yl)-piperidin-1-yl]-2-methyl-propan-1-one]	5.52 to 6.52	5.52 to 6.52	–

The next lines start with the values.

pIC50 (PDHK2)	pKd (human PDHK2 (12-407))	pIC50 (PDH-Elalpha (pSer300))	SMILES
5.52 to 6.52	5.52 to 6.52	4.30 to 5.52	C[C@@](O)(C(=O)N1CCC(n2cnnc2-c2ccccc2F)CC1)C(F)(F)F [Compound A55, (R)-3,3,3-Trifluoro-1-{4-[3-(2-fluoro-phenyl)-[1,2,4]triazol-4-yl]-piperidin-1-yl}-2-hydroxy-2-methyl-propan-1-one]
5.52 to 6.52	> 6.52	5.52 to 6.52	C[C@@](O)(C(=O)N1CCC(c2cc(C(F)(F)F)nn2-c2ccc(F)cc2)CC1)C(F)(F)F [Compound A42, (R)-1-{4-[2-(4-Fluoro-phenyl)-5-trifluoromethyl-2H-pyrazol-3-yl]-piperidin-1-yl}-3,3,3-trifluoro-2-hydroxy-2-methyl-propan-1-one]
5.52 to 6.52	> 6.52	4.30 to 5.52	C[C@@](O)(C(=O)N1CCC(n2cncc2-c2ccccc2)CC1)C(F)(F)F [Compound A63, (2R)-3,3,3-trifluoro-2-hydroxy-2-methyl-1-[4-(5-phenylimidazol-1-yl)-1-piperidyl]propan-1-one]
> 6.52	> 6.52	> 6.52	COc1ccc(-n2nccc2[C@H]2CCN(C(=O)[C@@](C)(O)C(F)(F)F)C[C@H]2C)cc1 [Compound A110, (R)-3,3,3-Trifluoro-1-{(3S,4S)-4-[2-(4-methoxy-phenyl)-2H-pyrazol-3-yl]-3-methyl-piperidin-1-yl}-2-hydroxy-2-methyl-propan-1-one]
> 6.52	–	> 6.52	C[C@@H]1CN(C(=O)[C@@](C)(O)C(F)(F)F)CC[C@@H]1c1ccnn1-c1ccc(F)cc1F [Compound A33, (R)-1-{(3S,4S)-4-[2-(2,4-difluoro-phenyl)-2H-pyrazol-3-yl]-3-methyl-piperidin-1-yl}-3,3,3-trifluoro-2-hydroxy-2-methyl-propan-1-one]
5.52 to 6.52	5.52 to 6.52	–	C[C@@](O)(C(=O)N1CCC(c2nncn2-c2ccccc2)CC1)C(F)(F)F [Compound A72, (R)-3,3,3-Trifluoro-2-hydroxy-2-methyl-1-[4-(4-phenyl-4H-[1,2,4]triazol-3-yl)piperidin-1-yl]-propan-1-one]
5.52 to 6.52	5.52 to 6.52	–	Cc1cc(C2CCN(C(=O)[C@@](C)(O)C(F)(F)F)CC2)nn1-c1ccc(Cl)cc1 [Compound A34, (R)-1-{4-[1-(4-Chloro-phenyl)-5-methyl-1H-pyrazol-3-yl]-piperidin-1-yl}-3,3,3-trifluoro-2-hydroxy-2-methyl-propan-1-one]
> 6.52	–	5.52 to 6.52	C[C@H]1CN(C(=O)[C@@](C)(O)C(F)(F)F)CC[C@H]1c1ccnn1-c1ccc(F)cc1F [Compound A32, (R)-1-{(3R,4R)-4-[2-(2,4-difluoro-phenyl)-2H-pyrazol-3-yl]-3-methyl-piperidin-1-yl}-3,3,3-trifluoro-2-hydroxy-2-methyl-propan-1-one]
> 6.52	> 6.52	–	Cc1cc(C2CCN(C(=O)[C@@](C)(O)C(F)(F)F)CC2)n(-c2ccc(Cl)cc2)n1 [Compound A50, (R)-1-{4-[2-(4-Chloro-phenyl)-5-methyl-2H-pyrazol-3-yl]-piperidin-1-yl}-3,3,3-trifluoro-2-hydroxy-2-methyl-propan-1-one]
